Test results from BindingDB's records for doi:10.1021/jm00107a050 (Merck Research Laboratories, 1991).

Target: T1, Dimer of Gag-Pol polyprotein [489-587] (Human immunodeficiency virus 1, UniProt P12497)
T1 construct: 489-587
Experiment: Protease Inhibition Assay
Details: pH 5.5; 30 °C
Protocol: Sensitivity of HIV-1 protease activity to protease inhibitors was determined by a peptide substrate cleavage assay. Protease products were analyzed on a reverse-phase high-pressure liquid chromatograph.

Structure (SMILES) | IC50
CCC(C)C(NC(=O)[C@H](C/C=C/c1ccccc1)C[C@H](O)[C@H](Cc1ccccc1)NC(=O)OC(C)(C)C)C(=O)NCc1nc2ccccc2[nH]1 (stereo partly drawn) [tert-butyl N-[(2S,3S,5R)-5-({1-[(1H-1,3-benzodiazol-2-ylmethyl)carbamoyl]-2-methylbutyl}carbamoyl)-3-hydroxy-1-phenyl-5-[(2E)-3-phenylprop-2-en-1-yl]pentan-2-yl]carbamate] | 0.03 nM
CCC(C)C(NC(=O)[C@H](Cc1ccccc1)C[C@H](O)[C@H](Cc1ccccc1)NC(=O)OC(C)(C)C)C(=O)NCc1nc2ccccc2[nH]1 (stereo partly drawn) [tert-butyl N-[(2S,3S,5R)-5-({1-[(1H-1,3-benzodiazol-2-ylmethyl)carbamoyl]-2-methylbutyl}carbamoyl)-5-benzyl-3-hydroxy-1-phenylpentan-2-yl]carbamate] | 0.07 nM
